Laboratory results from ChEMBL document CHEMBL1150492, “Topliss approach to the synthesis of biologically active substituted N-benzoyl taxol analogues” (1994).

What was measured:
[1] = In vitro effect on microtubule assembly relative to that of Taxol, expressed as ED50/ED50 (Taxol=1); assay type: functional
B16 = assay: In vitro effect on B16 melanoma cytotoxicity relative to that of Taxol, expressed as ED50/ED50 (Taxol=1); assay type: functional, Mus musculus

| Compound | ED50 ratio [1] | ED50 ratio (B16) |
| --- | --- | --- |
| CC(=O)O[C@H]1C(=O)[C@@]2(C)[C@H]([C@H](OC(=O)c3ccccc3)[C@]3(O)C[C@H](OC(=O)[C@H](O)[C@@H](N)c4ccccc4)C(C)=C1C3(C)C)[C@]1(OC(C)=O)CO[C@@H]1C[C@@H]2O | 21 | – |
| CC(=O)O[C@H]1C(=O)[C@@]2(C)[C@H]([C@H](OC(=O)c3ccccc3)[C@]3(O)C[C@H](OC(=O)[C@H](O)[C@@H](NC(=O)c4ccccc4C)c4ccccc4)C(C)=C1C3(C)C)[C@]1(OC(C)=O)CO[C@@H]1C[C@@H]2O | 1.9 | 7.5 |
| CC(=O)O[C@H]1C(=O)[C@@]2(C)[C@H]([C@H](OC(=O)c3ccccc3)[C@]3(O)C[C@H](OC(=O)[C@H](O)[C@@H](NC(=O)c4cccc(N(C)C)c4)c4ccccc4)C(C)=C1C3(C)C)[C@]1(OC(C)=O)CO[C@@H]1C[C@@H]2O | 1.4 | 1.6 |
| CC(=O)O[C@H]1C(=O)[C@@]2(C)[C@H]([C@H](OC(=O)c3ccccc3)[C@]3(O)C[C@H](OC(=O)[C@H](O)[C@@H](NC(=O)c4ccccc4)c4ccccc4)C(C)=C1C3(C)C)[C@]1(OC(C)=O)CO[C@@H]1C[C@@H]2O [PACLITAXEL] | 1 | 1 |
| CC(=O)O[C@H]1C(=O)[C@@]2(C)[C@H]([C@H](OC(=O)c3ccccc3)[C@]3(O)C[C@H](OC(=O)[C@H](O)[C@@H](NC(=O)c4ccc(F)cc4)c4ccccc4)C(C)=C1C3(C)C)[C@]1(OC(C)=O)CO[C@@H]1C[C@@H]2O | 1.2 | 4.3 |
| CC(=O)O[C@H]1C(=O)[C@@]2(C)[C@H]([C@H](OC(=O)c3ccccc3)[C@]3(O)C[C@H](OC(=O)[C@H](O)[C@@H](NC(=O)c4cccc(Cl)c4)c4ccccc4)C(C)=C1C3(C)C)[C@]1(OC(C)=O)CO[C@@H]1C[C@@H]2O | 2 | 1.8 |
| CC(=O)O[C@H]1C(=O)[C@@]2(C)[C@H]([C@H](OC(=O)c3ccccc3)[C@]3(O)C[C@H](OC(=O)[C@H](O)[C@@H](NC(=O)c4ccc(C)cc4)c4ccccc4)C(C)=C1C3(C)C)[C@]1(OC(C)=O)CO[C@@H]1C[C@@H]2O | 1.6 | 1.4 |
| COc1ccc(C(=O)N[C@@H](c2ccccc2)[C@@H](O)C(=O)O[C@H]2C[C@@]3(O)[C@@H](OC(=O)c4ccccc4)[C@@H]4[C@]5(OC(C)=O)CO[C@@H]5C[C@H](O)[C@@]4(C)C(=O)[C@H](OC(C)=O)C(=C2C)C3(C)C)cc1 | 0.6 | 1.3 |
| CC(=O)O[C@H]1C(=O)[C@@]2(C)[C@H]([C@H](OC(=O)c3ccccc3)[C@]3(O)C[C@H](OC(=O)[C@H](O)[C@@H](NC(=O)c4ccc(Cl)c(Cl)c4)c4ccccc4)C(C)=C1C3(C)C)[C@]1(OC(C)=O)CO[C@@H]1C[C@@H]2O | 2.1 | 10.6 |
| CC(=O)O[C@H]1C(=O)[C@@]2(C)[C@H]([C@H](OC(=O)c3ccccc3)[C@]3(O)C[C@H](OC(=O)[C@H](O)[C@@H](NC(=O)c4ccc(Cl)cc4)c4ccccc4)C(C)=C1C3(C)C)[C@]1(OC(C)=O)CO[C@@H]1C[C@@H]2O | 2.4 | 1.5 |
| CC(=O)O[C@H]1C(=O)[C@@]2(C)[C@H]([C@H](OC(=O)c3ccccc3)[C@]3(O)C[C@H](OC(=O)[C@H](O)[C@@H](NC(=O)c4ccc([N+](=O)[O-])cc4)c4ccccc4)C(C)=C1C3(C)C)[C@]1(OC(C)=O)CO[C@@H]1C[C@@H]2O | 2 | 20.7 |
